Earlier results in patent publication US20050165089A1, “Compounds, compositions and methods” (priority 2003, published 2005).

Test system: A549 cells

SMILES	GI50 [nM]
O=c1[nH]cc(F)c(=O)[nH]1 [5-fluorouracil]	1000
COc1cccc2c1C(=O)c1c(O)c3c(c(O)c1C2=O)C[C@@](O)(C(=O)CO)C[C@@H]3O[C@H]1C[C@H](N)[C@H](O)[C@H](C)O1 [doxorubicin]	63
CC(=O)O[C@H]1C(=O)[C@@]2(C)[C@H]([C@H](OC(=O)c3ccccc3)[C@]3(O)C[C@H](OC(=O)[C@H](O)[C@@H](NC(=O)c4ccccc4)c4ccccc4)C(C)=C1C3(C)C)[C@]1(OC(C)=O)CO[C@@H]1C[C@@H]2O [paclitaxel]	4
NC(=O)NO [hydroxyurea]	500000
